Experimental data taken from US20140296346A1, “Crystalline Forms of (-)-(1R,2R)-3-(3-dimethylamino-1-ethyl-2-methylpropyl)-phenol hydrochloride” (priority 2004, published 2014).
Structures can show the parent of a compound that is named as a salt.

Key:
[1] = Stability of the crystalline form under ambient conditions
[2] = Variable temperature X-ray powder diffraction experiment; type: physicochemical; settings: variable temperature XRPD
Protocol: Variable Temperature X-Ray Powder Diffraction Experiment
A variable temperature X-ray powder diffraction experiment was run thereby producing Form B from Form A. Form A converted to Form B from 40-50° C. during the experiment.

## CC[C@@H](c1cccc(O)c1)[C@@H](C)CN(C)C [Form A, (-)-(1R,2R)-3-(3-dimethylamino-1-ethyl-2-methylpropyl)-phenol hydrochloride]
[1]
  Stability at ambient conditions: very stable
[1]; relative to Form B
  Stability under ambient conditions compared with Form B: more stable
[2]; on heating
  Temperature at which Form A converted to Form B: 40-50 °C

## CC[C@@H](c1cccc(O)c1)[C@@H](C)CN(C)C.Cl [Form B, (-)-(1R,2R)-3-(3-dimethylamino-1-ethyl-2-methylpropyl)-phenol hydrochloride]
[2]; at lower temperature
  Reversibility of the polymorphic conversion: changing over into Form A at lower temperature
